Patent publication US11332438B2, “Creatine prodrugs, compositions and methods of use thereof” (Ultragenyx Pharmaceutical Inc., priority 2017, dated 2022)

Tests used:
[1] = In vivo IV dosing in CrT KO mice: prodrug, d3-Cr and d3-Crn in brain (Table 5); conditions: IV 10 mg/kg, CrT KO mouse brain; BQL prodrug = 41.2 ng/mL
In short: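 CrT KO mice received prodrugs by IV injection at 10, 15 or 25 mg/kg. Brains were collected, flash frozen and homogenized in 100 mM KPI buffer with anti-proteases. Prodrug, d3-Cr and d3-Crn were quantified by LC-MS/MS and expressed as brain concentration (macrocycles) or AUC over time (linear prodrugs).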

[2] = d3-Creatine and d3-creatinine concentration in CrT KO mice brain after IV bolus dose (FIGS. 3 and 4, Table 6); format: in vivo; conditions: CrT KO mice, 10 mg/kg IV, FIG. 4
Method: The brain concentrations of d3-creatine and d3-creatinine was measured in CrT KO mice following 10 mg/kg single dose IV bolus dose of compound 14 and 15 (FIGS. 3 and 4). As shown by FIG. 3, brain d3-creatine concentration was higher following administration of compound 15 compared to compound 14. […] Without bound to any theory, the macrocyclic compound 15 prodrug reduces d3-creatine cyclization to d3-creatinine when compared to linear compound 14 prodrug.
The concentration of d3-creatine in CrT KO mice brain were also measured for other compounds disclosed in the present application as shown in Table 6. The concentrations of d3-creatine, d3-creatinine and creatine prodrugs are measured by LC-MS/MS. The brain sample is homogenized with 4× (weight to volume) of KPI 100 mM buffer containing anti-proteases and anti-phosphatases (if needed). 50 μl of brain homogenate is then de-proteinized using 4× volume/volume of a solution containing 80% acetonitrile and 20% water with bucetin, d5-Cr (internal standard). The plate is then spun at 4000 rpm, 10 minutes, 4° C. and samples are transferred to a new plate for bioanalysis. Each analyte in each sample was quantitated against a curve in matching biomatrix using an authentic standard.

[3] = Repeat dosing study, d3-creatine levels in non-human primate (NHP) brain (FIG. 2, Table 7); format: in vivo; conditions: 7 infusions q.d., all brain regions tested
Method: FIG. 2 is a graph of the data from a multi-dose study comparing d3-creatine and d3-creatinine levels in the brain of non-human primates, measured after a total of 7 infusions of compound 14 administered q.d. (once daily). Cr=d3-creatine; CRN=d3-creatinine.
Non-human primate (NHP) brains were dosed with Compound 8 (120 mg/kg) and Compound 14 (18 mg/kg) over a seven day period (i.v. infusion provide q.d.).

[4] = Chemical stability in simulated gastric fluid (SGF) without pepsin; format: physicochemical; conditions: 50 μM prodrug
In short: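 Incubations used 50 μM compound at 37 °C in phosphate buffered saline, fasted simulated intestinal fluid without pancreatin, or fasted simulated gastric fluid without pepsin.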

[5] = Liver microsome stability, human; format: in vitro ADME; conditions: liver microsomes, pH 7.4, Table 2C, read-out: Microsome Stability Human t1/2
In short: (§1)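 Remaining compound measured by LC/MS after acetonitrile/internal-standard quench at 0–60 min time points (0, 5, 10, 20, 30, 60). Incubations used mouse or human liver microsomes in pH 7.4 potassium phosphate/EDTA buffer with NADPH; a 60-min sample without NADPH served as control.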

[6] = tested on: Phenocell CrT deficient neurons (iPSC-derived human neurons); experiment: Creatine prodrug uptake and d3-creatine release in Phenocell CrT deficient neurons (Table 4B); format: cell-based; conditions: 2 hours
Method: Human neurons were obtained by differentiation of iPSC-derived neural stem cells for 14 days. The iPSCs were obtained from Phenocell Corporation. Neurons were cultured and differentiated to Day 10 and then frozen in liquid nitrogen. Neurons were thawed and replated at 1×10^6 per well of viable cells on poly-ornithine/laminin coated plates in 2 ml medium per well. Differentiation in complete Neurol medium with 2 ng/ml FGF2 was carried out for 4 additional days with a complete medium change (90% of medium) on Day 12. Activin A (20 ng/ml final conc.) was spiked into the cultures on Day 11 and Day 13. […] In parallel, compounds were incubated in medium alone to assess chemical stability of parent prodrug and metabolites. At the end of the 2 hour incubation, supernatants were collected and frozen at −80 C. Neurons in 6 well plates were washed gently 3× with HBSS and frozen at −80° C. Cell lysates were obtained by addition of 130 μl/well 10 mM Tris pH 7.4 with complete Mini protease inhibitors and scraping of wells. Plates were kept on ice during processing. Lysates were homogenized by hand briefly with a green pestle in 1.5 ml centrifuge tubes and then vortexed at high speed for 5 seconds. Lysates were centrifuged at 13,000 g, 10 minutes, 4 C and supernatants (cytosol fraction) were transferred in a new tube. A crash solution constituted of 80% acetonitrile and 20% water with bucetin, d5-Cr (internal standard) was added at 4:1 volume to volume to 50 ul of all samples for a total volume of 250 μL. Then plate was spun at 4000 rpm, 10 minutes, […] Samples were transferred to a new plate and frozen at −80 C prior to analysis by LC-MS/MS (Table 4B).

[7] = Liver microsome stability, mouse; format: in vitro ADME; conditions: liver microsomes, pH 7.4, Table 2C, read-out: Microsome Stability Mouse t1/2
In short: as §1

[8] = Single-dose study in CrT KO mice: creatine and creatinine in plasma and brain over 8 h (FIG. 1); format: in vivo
Method: FIG. 1 is a graph of the data from a single-dose study comparing d3-creatine and d3-creatinine levels in the plasma and brain of CrT KO mice treated with compound 15 and measured over 8 h. Cr=d3-creatine; CRN=d3-creatinine.
The plasma and brain concentrations of creatine and creatinine was measured in CrT KO mice upon treatment with compound 15 (FIG. 1). […] The ratio of [creatine]Brain.[creatine]Plasma can be an useful parameter for a successful clinical development of creatine prodrugs for treating CTD and related conditions.

SMILES | AUClast prodrug in the brain [1] | brain concentration of d3-creatinine, compound 14 versus compound 15 [2] | d3-creatine (d3-Cr) levels in NHP brain on repeat administration (in words) [3] | Chemical Stability SGF, no enzyme % T0 at 2 hours at 37 °C. ([4]; Table 2A) | half-life at 10 μM [5] | Prodrug concentration in the cell cytosol ([6]; Study No. 2, 100 μM) | d3-Creatine concentration in the cell cytosol ([6]; Study No. 2, 100 μM) | Prodrug concentration in the cell cytosol ([6]; Study No. 2, 500 μM) | half-life at 10 μM [7] | creatine levels compared to creatinine (CRN) levels [8] | brain creatine (Cr) concentration compared to plasma ([8]; measured over 8 h) | Chemical Stability SGF, no enzyme % T0 at 2 hours at 37 °C. ([4]; Table 2C)
Cl.[2H]C([2H])([2H])N(CC(=O)OCCCCCCC)C(=N)NC(=O)CCCCCC [Compound 14] | BQL | not significantly different | dramatically increases | 80% | – | – | – | – | – | – | – | –
Cl.[2H]C([2H])([2H])N1CC(=O)OCCCCCCCCCCC(=O)NC1=N [Compound 15, 5-imino-4-trideuteriomethyl-1-oxa-4,6-diazacycloheptadecane-2,7-dione Hydrochloride] | – | not significantly different | – | – | < 5 min | BLOQ | BLOQ | BLOQ | < 5 min | higher than creatinine (CRN) levels | higher than the concentration in plasma | 97%
